According to patent US20250215460A1, “MICROBIAL […] THE CONVERSION OF CARBOHYDRATES” (Ohio State Innovation Foundation, priority 2022, published 2025):

Tested on: C. tyrobutyricum
Test: Batch fermentation in stirred-tank bioreactor on glucose and xylose with acetate and benzyl viologen added
Format: cell-based, Clostridium tyrobutyricum
Details: in the presence of 3.75 μM BV (0.30 g/g before BV addition); pH 6.0, ~18 g/L acetate added at ~48 h
Description: Batch fermentation in a stirred-tank bioreactor with C. tyrobutyricum grown on glucose and xylose at pH 6.0 was studied with the addition of ˜18 g/L acetate and 3.75 μM benzyl viologen (BV) at ˜48 h. With BV and acetate addition, C. tyrobutyricum converted glucose, xylose, and acetate simultaneously to butyrate as the sole fermentation product with close to 100% purity at an overall yield of ˜0.48 g/g substrate. Almost all glucose and acetate (both produced before BV addition and externally added) were consumed to produce butyrate, reaching a high concentration of ˜46 g/L. Butyric acid yield from sugars increased from 0.30 g/g before BV addition to 0.52 g/g from both sugars and acetate consumed in the presence of 3.75 μM BV. The theoretical yield of butyric acid from glucose in the fermentation is 0.8 mol/mol (0.39 g/g) when acetate (0.4 mol/mol) and carbon dioxide (2 mol/mol) are also produced as co-products. In contrast, butyrate formation from acetate has a theoretical yield of 0.73 g/g (0.5 mol/mol), which is 87.2% higher than that from glucose, because no substrate carbon is lost in carbon dioxide. In addition to the higher butyrate yield, butyrate was produced as the only main product in the fermentation with a high acid purity of 98.3%, which was much higher than ˜80% in typical butyric acid fermentation. […]

Q: For c1ccc(C[n+]2ccc(-c3cc[n+](Cc4ccccc4)cc3)cc2)cc1 [BV, benzyl viologen], which “Butyric acid yield from both sugars and acetate consumed” value is on record?
A: The value was 0.52 g/g.
